Key:
[1] = molecular target: T1, Akt2 (Homo sapiens, UniProt P31751); experiment: Akt activation assay (PDK1-mediated activation, LANCE Ultra crosstide TR-FRET), Akt2; assay type: biochemical; conditions: read-out: Biological Assay 1 IC50 (nM) Akt2
T1 construct: unspecified tag, removed (detagged) (cleaved yes); purchased SignalChem and Proteros (Akt2); Merck Millipore (PDK1) 14-452 (PDK1); none given for Akt2
How it was run: (§1)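 This TR-FRET readout (Eu-anti-phospho-crosstide antibody, 665/615 nm) measured PDK1-driven activation of Akt. Compound was first preincubated with each Akt isoform: Akt1 5 nM; Akt2 15 nM SignalChem or 5 nM Proteros; Akt3 3 nM SignalChem or 5 nM Proteros. Reactions then ran 30 min with 5 nM PDK1, lipid vesicles containing 0.55 µM PtdIns(3,4,5)P3, 100 µM ATP and 100 nM crosstide at pH 7.5, and IC50 came from a 4-parameter equation.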

[2] = molecular target: T2, p-Akt1 in LNCaP cells (Homo sapiens, UniProt P31749); experiment: Phospho-Akt cellular SureFire assay, p-Akt1 in LNCaP cells; assay type: cell-based; conditions: read-out: Biological Assay 2 IC50 (nM) Akt1 LNCaP
T2 construct: SureFire assays to detect cellular p-Akt1, p-Akt2 and p-Akt3 levels in WM115 cells (Akt2/3) and LNCaP cells (Akt1); endogenous in cells; host or cells: LNCaP (ECACC 89110211)
How it was run: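 Phospho-Thr308 Akt1 detected by AlphaScreen SureFire proximity beads in LNCaP lysates after 15 min compound treatment at 37 °C in 0.1% FBS medium, unstimulated, 0.3% DMSO. Cells plated at 5×10^4/well overnight; IC50 from a 4-parameter equation.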

[3] = molecular target: T3, Akt3 (Homo sapiens, UniProt Q9Y243); experiment: Akt activation assay (PDK1-mediated activation, LANCE Ultra crosstide TR-FRET), Akt3; assay type: biochemical; conditions: read-out: Biological Assay 1 IC50 (nM) Akt3
T3 construct: unspecified tag, removed (detagged) (cleaved yes); purchased SignalChem and Proteros (Akt3); Merck Millipore (PDK1) 14-452 (PDK1); none given for Akt3
How it was run: as §1

[4] = molecular target: T4, p-Akt2 in WM115 cells (Homo sapiens, UniProt P31751); experiment: Phospho-Akt cellular SureFire assay, p-Akt2 in WM115 cells; assay type: cell-based; conditions: insulin stimulated, read-out: Biological Assay 2 IC50 (nM) Akt2 WM115
T4 construct: SureFire assays to detect cellular p-Akt1, p-Akt2 and p-Akt3 levels in WM115 cells (Akt2/3) and LNCaP cells (Akt1); endogenous in cells; host or cells: WM115 (ECACC 91061232), insulin-stimulated
How it was run: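 Readout is a bead-proximity SureFire assay pairing a pThr308 Akt antibody with a total Akt2 antibody, lysate and beads incubated 2 h plus 2 h at room temperature in the dark. Before lysis, serum-starved WM115 cells received 100 nM insulin (10 min), then test compound (15 min, 0.3% DMSO); IC50 by 4-parameter equation.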

[5] = molecular target: T5, p-Akt3 in WM115 cells (Homo sapiens, UniProt Q9Y243); experiment: Phospho-Akt cellular SureFire assay, p-Akt3 in WM115 cells; assay type: cell-based; conditions: insulin stimulated, read-out: Biological Assay 2 IC50 (nM) Akt3 WM115
T5 construct: SureFire assays to detect cellular p-Akt1, p-Akt2 and p-Akt3 levels in WM115 cells (Akt2/3) and LNCaP cells (Akt1); endogenous in cells; host or cells: WM115 (ECACC 91061232), insulin-stimulated
How it was run: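 pThr308-Akt3 in lysates was quantified by bead-proximity SureFire detection, pairing a phospho-specific antibody with a total Akt3 antibody. Before lysis, WM115 cells in 0.1% FBS medium were treated for 15 min at 37 °C with compound (final DMSO 0.3%), following a 10 min stimulation with 100 nM insulin. IC50 was obtained by 4-parameter fitting.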

[6] = molecular target: T6, Akt1 (Homo sapiens, UniProt P31749); experiment: Akt activation assay (PDK1-mediated activation, LANCE Ultra crosstide TR-FRET), Akt1; assay type: biochemical; conditions: read-out: Biological Assay 1 IC50 (nM) Akt1
T6 construct: unspecified tag, removed (detagged) (cleaved yes); purchased SignalChem and Proteros (Akt1); Merck Millipore (PDK1) 14-452 (PDK1); none given for Akt1
How it was run: as §1

T3 sequence (Q9Y243 whole entry): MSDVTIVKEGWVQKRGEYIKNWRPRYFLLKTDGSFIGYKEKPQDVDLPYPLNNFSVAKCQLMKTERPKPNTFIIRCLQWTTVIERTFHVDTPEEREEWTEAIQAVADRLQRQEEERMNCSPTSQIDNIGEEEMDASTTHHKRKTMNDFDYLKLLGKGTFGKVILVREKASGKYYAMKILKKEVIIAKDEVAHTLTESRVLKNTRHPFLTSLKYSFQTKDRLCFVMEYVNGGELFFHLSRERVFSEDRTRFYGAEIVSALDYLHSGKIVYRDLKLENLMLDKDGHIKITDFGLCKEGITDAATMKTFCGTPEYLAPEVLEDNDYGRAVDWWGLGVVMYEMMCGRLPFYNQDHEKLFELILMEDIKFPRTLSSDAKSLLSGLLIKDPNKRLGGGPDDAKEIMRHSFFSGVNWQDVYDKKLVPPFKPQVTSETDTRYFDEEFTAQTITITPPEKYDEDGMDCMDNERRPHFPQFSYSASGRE
T5 sequence (Q9Y243 whole entry): as above
T1 sequence (P31751 whole entry): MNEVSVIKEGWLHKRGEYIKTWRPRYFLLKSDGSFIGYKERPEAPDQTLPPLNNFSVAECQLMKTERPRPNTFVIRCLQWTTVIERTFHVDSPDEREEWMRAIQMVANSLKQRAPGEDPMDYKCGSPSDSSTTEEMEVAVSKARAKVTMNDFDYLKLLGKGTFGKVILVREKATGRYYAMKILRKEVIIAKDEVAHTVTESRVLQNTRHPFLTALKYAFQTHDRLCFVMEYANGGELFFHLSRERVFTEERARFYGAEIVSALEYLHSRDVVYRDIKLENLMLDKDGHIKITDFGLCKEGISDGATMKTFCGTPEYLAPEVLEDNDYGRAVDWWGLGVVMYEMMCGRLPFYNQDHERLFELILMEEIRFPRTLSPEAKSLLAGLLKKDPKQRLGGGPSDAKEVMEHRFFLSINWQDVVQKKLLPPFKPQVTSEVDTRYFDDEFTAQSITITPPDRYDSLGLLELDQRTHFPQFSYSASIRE
T4 sequence (P31751 whole entry): as above
T6 sequence (P31749 whole entry): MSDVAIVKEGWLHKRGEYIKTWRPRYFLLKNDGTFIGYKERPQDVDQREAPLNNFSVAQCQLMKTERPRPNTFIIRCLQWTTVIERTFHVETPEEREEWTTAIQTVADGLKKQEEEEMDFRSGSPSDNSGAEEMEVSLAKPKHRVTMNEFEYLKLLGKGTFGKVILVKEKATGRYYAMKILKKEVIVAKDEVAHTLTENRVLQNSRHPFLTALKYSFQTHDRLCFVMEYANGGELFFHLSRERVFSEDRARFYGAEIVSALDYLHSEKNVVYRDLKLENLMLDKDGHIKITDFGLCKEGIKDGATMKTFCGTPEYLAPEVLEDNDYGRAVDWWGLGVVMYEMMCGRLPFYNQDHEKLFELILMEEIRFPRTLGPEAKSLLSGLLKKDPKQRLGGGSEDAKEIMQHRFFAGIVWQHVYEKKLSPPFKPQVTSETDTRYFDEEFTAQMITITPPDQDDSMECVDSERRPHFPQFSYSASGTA
T2 sequence (P31749 whole entry): as above

Row | Compound | IC50 [1] [nM] | IC50 [2] [nM] | IC50 [3] [nM] | IC50 [4] [nM] | IC50 [5] [nM] | IC50 [6] [nM]
1 | CCOC(=O)N(C)[C@H]1CC[C@H](CC(=O)Nc2cnc(-c3ccc(C(C)(C)N)cc3)c(-c3ccccc3)c2)CC1 [Example A99, Ethyl (trans-4-(2-((6-(4-(2-aminopropan-2-yl)phenyl)-5-phenylpyridin-3-yl)amino)-2-oxoethyl)cyclohexyl)(methyl)carbamate] | 3000 | > 30000 | 130 | 7800 | 440 | > 27000
2 | N[C@]1(c2ccc(-c3cnc(NC(=O)C[C@H]4CC[C@H](N5CCOC5=O)CC4)cc3-c3ccccc3)cc2)C[C@@H](F)C1 [Example A53, N-(5-(4-(trans-1-amino-3-fluorocyclobutyl)phenyl)-4-phenylpyridin-2-yl)-2-(trans-4-(2-oxooxazolidin-3-yl)cyclohexyl)acetamide] | 480 | > 30000 | 39 | 5400 | 410 | > 30000
3 | NC1(c2ccc(-c3ncc(NC(=O)[C@@H](F)C4CCN(S(=O)(=O)C5CC5)CC4)cc3-c3ccccc3)cc2)CCC1 [Example 50, (S)—N-(6-(4-(1-aminocyclobutyl)phenyl)-5-phenylpyridin-3-yl)-2-(1-(cyclopropylsulfonyl)piperidin-4-yl)-2-fluoroacetamide] | 670 | > 30000 | 370 | 6800 | 580 | 5800
4 | CN(C(=O)C1CCC1)[C@H]1CC[C@H](CC(=O)Nc2cc(-c3ccccc3)c(-c3ccc(C(C)(C)N)cc3)nn2)CC1 [Example A87, N-(trans-4-(2-((6-(4-(2-aminopropan-2-yl)phenyl)-5-phenylpyridazin-3-yl)amino)-2-oxoethyl)cyclohexyl)-N-methylcyclobutanecarboxamide] | 5500 | > 23000 | 99 | 12000 | 400 | > 30000
5 | CC(C)C(=O)N(C)[C@H]1CC[C@H](CC(=O)Nc2cc(-c3ccccc3)c(-c3ccc(C4(N)CC4)cc3)nn2)CC1 [Example A92, N-(trans-4-(2-((6-(4-(1-aminocyclopropyl)phenyl)-5-phenylpyridazin-3-yl)amino)-2-oxoethyl)cyclohexyl)-N-methylisobutyramide] | 1200 | > 30000 | 29 | 2200 | 140 | > 13000
6 | CC(=O)N(C)[C@H]1CC[C@H](CC(=O)Nc2cnc(-c3ccc([C@]4(N)C[C@H](F)C4)cc3)c(-c3ccccc3)c2)CC1 [Example 32, N-(6-(4-(trans-1-amino-3-fluorocyclobutyl)phenyl)-5-phenylpyridin-3-yl)-2-(trans-4-(N-methylacetamido)cyclohexyl)acetamide] | 470 | 6900 | 34 | 1400 | 36 | 2000
7 | CCC(=O)N(C)[C@H]1CC[C@H](CC(=O)Nc2cnc(-c3ccc(C4(N)CC4)c(F)c3)c(-c3ccccc3)c2)CC1 [Example A89, N-(trans-4-(2-((6-(4-(1-aminocyclopropyl)-3-fluorophenyl)-5-phenylpyridin-3-yl)amino)-2-oxoethyl)cyclohexyl)-N-methylpropionamide] | 4000 | > 30000 | 80 | 8300 | 130 | > 30000
8 | CC(C)(N)c1ccc(-c2ncc(NC(=O)C[C@H]3CC[C@H](N4CCOCC4)CC3)cc2-c2ccccc2)cc1 [Example A18, N-(6-(4-(2-aminopropan-2-yl)phenyl)-5-phenylpyridin-3-yl)-2-(trans-4-morpholinocyclohexyl)acetamide] | 25000 | > 27000 | 6300 | 7900 | 270 | > 30000
9 | NC1(c2ccc(-c3ncc(NC(=O)C[C@H]4CC[C@H](N5CCOCC5)CC4)cc3-c3ccccc3)cc2)CC(F)(F)C1 [Example A2, N-(6-(4-(1-amino-3,3-difluorocyclobutyl)phenyl)-5-phenylpyridin-3-yl)-2-(trans-4-morpholinocyclohexyl)acetamide] | 2600 | 7700 | 1400 | 6000 | 560 | 5500

Stronger by IC50 [1], values ahead:

Row | IC50 [1] [nM] | IC50 [2] [nM] | IC50 [3] [nM] | IC50 [4] [nM] | IC50 [5] [nM] | IC50 [6] [nM] | Compound
10 | 220 | 9000 | 20 | 5100 | 300 | > 15000 | COC(=O)N(C(C)C)[C@H]1CC[C@H](CC(=O)Nc2cc(-c3ccccc3)c(-c3ccc([C@]4(N)C[C@](C)(O)C4)cc3)cn2)CC1 [Example A105, Methyl (trans-4-(2-((5-(4-(trans-1-amino-3-hydroxy-3-methylcyclobutyl)phenyl)-4-phenylpyridin-2-yl)amino)-2-oxoethyl)cyclohexyl)(isopropyl)carbamate]
11 | 110 | 1600 | 5 | 230 | 6 | 8500 | CCN(C(=O)OC)[C@H]1CC[C@H](CC(=O)Nc2cnc(-c3ccc([C@]4(N)C[C@](C)(O)C4)cc3)c(-c3ccccc3)c2)CC1 [Example 118, Methyl (trans-4-(2-((6-(4-(trans-1-amino-3-hydroxy-3-methylcyclobutyl)phenyl)-5-phenylpyridin-3-yl)amino)-2-oxoethyl)cyclohexyl) (ethyl)carbamate]
12 | 70 | 2300 | 5 | 410 | 22 | 5900 | N-(6-(4-(trans-1-amino-3-hydroxy-3-methylcyclobutyl)phenyl)-5-phenylpyridin-3-yl)-2-(trans-4-(N-ethylacetamido)cyclohexyl)acetamide [Example 119]
13 | 380 | > 30000 | 67 | > 3600 | 38 | > 17000 | N[C@]1(c2ccc(-c3nnc(NC(=O)C[C@H]4CC[C@H](N5CCOC5=O)CC4)cc3-c3ccccc3)cc2)C[C@@H](F)C1 [Example 45, N-(6-(4-(trans-1-amino-3-fluorocyclobutyl)phenyl)-5-phenylpyridazin-3-yl)-2-(trans-4-(2-oxooxazolidin-3-yl)cyclohexyl)acetamide]
14 | 140 | 1400 | 6 | 320 | 13 | 12000 | CN(C(=O)C1CC1)[C@H]1CC[C@H](CC(=O)Nc2cc(-c3ccccc3)c(-c3ccc([C@]4(N)C[C@](C)(O)C4)cc3)cn2)CC1 [Example A75, N-(trans-4-(2-((5-(4-(trans-1-amino-3-hydroxy-3-methylcyclobutyl)phenyl)-4-phenylpyridin-2-yl)amino)-2-oxoethyl)cyclohexyl)-N-methylcyclopropanecarboxamide]
15 | 71 | 1400 | 4 | 370 | 8 | 1900 | CN(C(=O)C1CC1)[C@H]1CC[C@H](CC(=O)Nc2cc(-c3ccccc3)c(-c3ccc([C@]4(N)C[C@](C)(O)C4)cc3)nn2)CC1 [Example A78, N-(trans-4-(2-((6-(4-(trans-1-amino-3-hydroxy-3-methylcyclobutyl)phenyl)-5-phenylpyridazin-3-yl)amino)-2-oxoethyl)cyclohexyl)-N-methylcyclopropanecarboxamide]

Reference: patent US10336702B2, “Pharmaceutically active compounds” (BERGENBIO ASA, priority 2015, dated 2019)
